The record followed here is patent US10420815B2, “Combinational therapy for synergistic inhibition of gram-positive and gram-negative bacteria” (priority 2015, dated 2019).

“Also recorded” adds a separate entry of the source. Bridge positions count the residues as written; N and C are the ends. Square brackets hold non-standard residues; d marks the D form. Peptide text beside a SMILES is read from it. * marks the point of attachment. Ileψ(thiazoline)Cys = CC[C@H](C)[C@H](N)C1=N[C@H](C(=O)*)CS1; dOrn = NCCC[C@@H](N)C(=O)O

Assay [1] deals with MRSA (ATCC 33593). The assay can be described thus: microbe, parasite or virus in culture. The class given is cell-based, Staphylococcus aureus. The following applies: MRSA; bacitracin alone. An excerpt:
(§1) MRSA (ATCC 33593), MSSA (ATCC 29213), and MRSA USA300 (BAA-1680) strains were purchased from the American Type Culture Collection (ATCC; Manassas, Va.). Eight clinical isolates of MRSA were obtained from the Culture Collection of Antimicrobial Resistant Microbes, Korea National Research Resource Center (KNRRC). Salmonella enterica Typhimurium LT2 was purchased from ATCC, and Escherichia coli O157:H7 is a kind gift from Dr. Sangryeol Ryu (Seoul National University, South Korea). All S. aureus strains were maintained in Trypticase Soy (TS) medium, and E. coli O157:H7 and Salmonella were routinely grown aerobically on Luria-Bertani (LB) media at 37° C. For measuring growth kinetics, an overnight culture of MRSA in Mueller-Hinton (MH) broth was diluted 100-fold in fresh MH broth and cultured until early exponential phase. The culture (200 μl) was transferred to each well of a sterile 96-well plate and incubated at 37° C. with bacitracin alone, alkyl gallate alone, and combination of bacitracin/alkyl gallates at various concentrations. The optical density at 600 nm (OD600) was measured every hour with FLUOstar® Omega (BMG Labtech, Germany).
(§2) Broth micro dilution assays were performed to determine the minimum inhibitory concentrations (MIC) accordance to the M7-A7 protocol of the Clinical and Laboratory Standards Institute (CLSI) guidelines^28. The susceptibility test was carried out with an initial bacterial inoculum of 1.5×10^5 CFU ml^−1. Alkyl gallates and bacitracin were serially diluted in a polystyrene 96 well plate and the plate was incubated at 37° C. for 24 h. Minimum bactericidal concentration (MBC) was determined by spotting 10 μl of cultures from MIC tests onto MH agar and incubated aerobically at 37° C.
(§3) MICs were determined with MRSA and methicillin-sensitive S. aureus (MSSA) using a broth dilution method as described above.
(§4) MRSA and MSSA were cultured overnight with antioxidants (0.5 μg/ml) and bacitracin at various concentrations and 10 μL of the culture was spotted on MH agar plates and incubated aerobically at 37° C. to observe the bacterial viability. The results in FIGS. 9A, 9B, 9C and 9D (photographs of plates) show the Minimal Bactericidal Concentrations (MBCs) for indicated antioxidants. Bacitracin killed MRSA and MSSA at concentrations greater than or equal to 2 μg/mi.

The subject of assay [2] is Escherichia coli O157:H7. The assay can be described thus: microbe, parasite or virus in culture. The class given is cell-based.
From the text: as §1, §2
(§5) MIC and MBC were measured as described above. MIC and MBC data are shown in Table 5 for both the Salmonella and the E. coli strain tested. The tested strains were highly resistant to bacitracin.

For assay [3], the system named is MRSA USA300 (BAA-1680). In words: Growth kinetics (OD600) with bacitracin, alkyl gallates and combinations. The class given is cell-based, Staphylococcus aureus.
From the text: as §1

Assay [4] concerns MRSA (normal MRSA strain, not USA300). In words: MRSA growth (optical density) with bacitracin and phenolic antioxidants. The following applies: bacitracin 0.0019 μg/mL to 1 μg/mL; FIG. 7B. The class given is cell-based, Staphylococcus aureus.
From the text: as §1
MRSA were grown with bacitracin (0.002 μg/mL) with antioxidant (as shown) at 0.5 μg/mL.
FIG. 7A is growth with no added bacitracin or lauryl gallate.
The optical density of MRSA was measured after 18 h culture with bacitracin (0.002 μg/ml) and antioxidants (as indicated at 0.5 μg/ml). Also measured were controls with no additions, with bacitracin alone and with antioxidant alone. FIGS. 8A, 8B, 8C and 8D are graphs illustrating the results.

Assay [5] concerns USA300. The assay can be described thus: Bacterial membrane permeability (propidium iodide fluorescence). The class given is cell-based, Staphylococcus aureus. As to conditions: for membrane permeability: agent alone, sub-MIC levels, EDTA 1 mM. The protocol: Membrane permeability was determined by measuring fluorescence after exposure of USA300 to propidium iodide as described previously^29. Briefly, USA300 was grown in MH broth to the exponential phase and then diluted to OD600≈0.25. Propidium iodide was mixed with bacteria to a final concentration of 10 μM. […] Fluorescence was monitored at excitation and emission wavelengths of 585 nm and 620 nm, respectively, for 1 h using FLUOstar Omega® (BMG Labtech, Germany). The membrane permeability was calculated by subtracting fluorescence intensity of controls without treatment with phenolic compounds from that of treated samples. EDTA (1 mM) was used as a positive control.

For assay [6], the system named is MRSA USA300 (BAA-1680). In words: microbe, parasite or virus in culture. The class given is cell-based, Staphylococcus aureus. Details: MBC of bacitracin in combination with OG / fold reduction in bacitracin MBC: dose or concentration left out as unconfirmed.
From the text: as §1, §2

In assay [7] the test system is MSSA (ATCC 29213). The assay can be described thus: MIC (broth dilution) and MBC (spotting) of phenolic antioxidants and bacitracin. The class given is cell-based, Staphylococcus aureus. As to conditions: bacitracin alone.
From the text: as §1, §2, §3, §4

For assay [8], the system named is MRSA 3799. The assay can be described thus: microbe, parasite or virus in culture. The class given is cell-based, Staphylococcus aureus.
From the text: as §1, §2

The subject of assay [9] is MRSA 3876. The assay can be described thus: microbe, parasite or virus in culture. The class given is cell-based, Staphylococcus aureus.
From the text: as §1, §2

In assay [10] the test system is MRSA 3865. The assay can be described thus: microbe, parasite or virus in culture. The class given is cell-based, Staphylococcus aureus.
From the text: as §1, §2

In assay [11] the test system is MRSA 3095. In words: microbe, parasite or virus in culture. The class given is cell-based, Staphylococcus aureus.
From the text: as §1, §2

The test system of assay [12] is MRSA 3A585. In words: microbe, parasite or virus in culture. The class given is cell-based, Staphylococcus aureus.
From the text: as §1, §2

Assay [13] deals with MRSA 3795. In words: microbe, parasite or virus in culture. The class given is cell-based, Staphylococcus aureus.
From the text: as §1, §2

Assay [14] has as its system MRSA 3823. The assay can be described thus: microbe, parasite or virus in culture. The class given is cell-based, Staphylococcus aureus.
From the text: as §1, §2

Assay [15] has as its system MRSA 3903. The assay can be described thus: microbe, parasite or virus in culture. The class given is cell-based, Staphylococcus aureus.
From the text: as §1, §2

For assay [16], the system named is human clinical isolates of MRSA with multidrug- and hyper-resistance. In words: Bactericidal activity of OG plus bacitracin against clinical isolates. The class given is cell-based, Staphylococcus aureus.
From the text: as §1, with “The culture (200 μl) was transferred to each well of a sterile 96-well plate and incubated at 37° C. with bacitracin alone, alkyl gallate alone, and combination of bacitracin/alkyl gallates at various concentrations.” left out
Broth micro dilution assays were performed to determine the minimum inhibitory concentrations (MIC) accordance to the M7-A7 protocol of the Clinical and Laboratory Standards Institute (CLSI) guidelines^28. […] Minimum bactericidal concentration (MBC) was determined by spotting 10 μl of cultures from MIC tests onto MH agar and incubated aerobically at 37° C. […]

Assay [17] has as its system Salmonella enterica Typhimurium LT2. In words: MIC and MBC, alone and bacitracin/alkyl gallate combinations. The class given is cell-based.
From the text: as §1, §2, §5

Where [18] appears, read: Salmonella enterica, S. Typhimurium, agent alone.

For the molecule `CC[C@H](C)[C@H](N)C1=N[C@H](C(=O)N[C@@H](CC(C)C)C(=O)N[C@H](CCC(=O)O)C(=O)N[C@H](C(=O)N[C@H]2CCCCNC(=O)[C@H](CC(N)=O)NC(=O)[C@@H](CC(=O)O)NC(=O)[C@H](Cc3cnc[nH]3)NC(=O)[C@@H](Cc3ccccc3)NC(=O)[C@H]([C@@H](C)CC)NC(=O)[C@@H](CCCN)NC2=O)[C@@H](C)CC)CS1` [Bacitracin, reference compound] ({Ileψ(thiazoline)Cys}-L[dE]IK[dOrn]I[dF]H[dD]N; lactam 4-C), the “bacitracin MIC for MRSA” value in assay [1] worked out at 2 µg/mL. For the same molecule, the “concentration of bacitracin alone that killed (MBC)” value in [1] and in assay [7] was “greater than or equal to 2 μg/mi” each time. Also, the MBC in assay [2] (E. coli O157:H7, agent alone) was more than 1024 µg/mL; in assay [6] (agent alone), 2048 µg/mL; in assay [6] (bacitracin alone, in units), 200 U. Besides, the MIC in assay [2] (E. coli O157:H7, agent alone) was more than 1024 µg/mL; in [6] (agent alone), 1024 µg/mL; in assay [6] (bacitracin alone, in units) it was 100 U; in assay [8] (MRSA 3799 (human/nose)), 128 µg/mL; in assay [9] (MRSA 3876 (human/skin)), 128 µg/mL; in [10] (MRSA 3865 (human/skin)), 128 µg/mL. The MIC came out at 128 µg/mL in assay [11] (MRSA 3095 (human/skin)); 128 µg/mL in assay [12] (MRSA 3A585 (human/blood)); 8 µg/mL in [13] (MRSA 3795 (human/nose)); 64 µg/mL in assay [14] (MRSA 3823 (human/nose)); 32 µg/mL in assay [15] (MRSA 3903 (human/skin)). The “growth inhibition by bacitracin only” value in [3] (up to 100 U bacitracin, without alkyl gallates) is recorded as “did not inhibit USA300”. The “MRSA growth inhibition by bacitracin alone” value in assay [4] is “did not inhibit MRSA”. The membrane permeability entry in assay [5] is listed as “did not affect membrane permeability”.
Take `CCCCCCCCOC(=O)c1cc(O)c(O)c(O)c1` [Octyl gallate (OG), octyl gallate]: the “fold change in bacitracin MBC” value is reported as > 1,000,000 fold in assay [2] (E. coli O157:H7, 5 μg ml^−1 OG) and > 1,000,000 fold in assay [17] (Salmonella, 5 μg ml^−1 OG). For the same molecule, the MBC turned out to be 512 µg/mL in [2] (Escherichia coli), 64 µg/mL in assay [6] (agent alone) and 512 µg/mL in assay [17] (setting [18]). The MIC turned out to be 256 µg/mL in [2] (Escherichia coli); 32 µg/mL in [6] (agent alone); 16 µg/mL in [8] (Staphylococcus aureus, MRSA); 16 µg/mL in assay [9] (Staphylococcus aureus, MRSA); 16 µg/mL in assay [10] (Staphylococcus aureus, MRSA); 16 µg/mL in assay [11] (Staphylococcus aureus, MRSA). For the same molecule, the MIC in [12] (Staphylococcus aureus, MRSA) came to 16 µg/mL; in assay [13] (Staphylococcus aureus, MRSA), 16 µg/mL; in assay [14] (Staphylococcus aureus, MRSA), 16 µg/mL; in assay [15] (Staphylococcus aureus, MRSA), 16 µg/mL; in [17] (setting [18]) it was 256 µg/mL. The “growth inhibition by bacitracin in combination with alkyl gallate” value in assay [3] (bacitracin 0.001 U to 100 U) is listed as “completely inhibited the growth of USA300”. The “membrane permeability, OG in the presence of bacitracin” value in assay [5] (OG plus bacitracin) is given as “more significantly increased membrane permeability than OG treatment without bacitracin; also recorded: significantly altered membrane permeability”. Also, the membrane permeability result in assay [5] is listed as “permeabilized the membrane in a concentration-dependent manner; also recorded: increased the membrane permeability”. Also, the “MBC of bacitracin in combination with alkyl gallate” value in assay [6] (5 μg ml^−1 alkyl gallate) was 10^−3 U. The “fold decrease in bacitracin MBC” value in [6] (5 μg ml^−1 alkyl gallate, versus bacitracin MBC 200 U) is recorded as 200,000 fold. For the same molecule, the “bactericidal activity in combination with bacitracin” value in assay [6] (FIG. 2) is recorded as “Most significant bactericidal activity”. Moreover, in assay [6] (OG), the “MBC of bacitracin in combination with OG” value is on record as 10^−4 U. The “fold reduction in bacitracin MBC” value in assay [6] (OG) is reported as 2,000,000 fold. The “MBC of bacitracin with OG” value in assay [8] (MRSA 3799, 5 μg ml^−1 OG) was 10^−2 U; in assay [15] (MRSA 3903, 5 μg ml^−1 OG), 10^−2 U. For the same molecule, in [16] (FIG. 3), the “killing of clinical MRSA isolates by OG plus bacitracin” value was “successfully killed all the tested clinical MRSA isolates; also recorded: effectively killed clinical MRSA isolates”. For the same molecule, the “bacitracin level at which most strains were killed with OG” value in [16] (most clinical MRSA strains, 5 μg ml^−1 OG) is 10^−3 U.
